# Assay results reported in the supplement of paper PMC13380429.
# ± gives the standard deviation of the averaged measurements.
# How the values were obtained:
# Conditions in all cases: 72 h
# [1] = tested on: Calu-3; assay: drug sensitivity score (DSS) for viability; higher = more toxic; extreme values may be limits of the assay
# [2] = tested on: U2OS; assay: as above
# [3] = tested on: HepG2; assay: as above
# [4] = tested on: Vero E6; assay: as above
# [5] = tested on: Caco-2; assay: as above
# [6] = tested on: Calu-3; assay: cell viability relative to DMSO; higher = less toxic
# [7] = tested on: U2OS; assay: as above
# [8] = tested on: HepG2; assay: as above
# [9] = tested on: Vero E6; assay: as above
# [10] = tested on: Caco-2; assay: as above
# [11] = tested on: Calu-3; assay: relative viability EC50 (midpoint between 100% and the lowest measured viability); higher = less toxic
# [12] = tested on: U2OS; assay: as above
# [13] = tested on: HepG2; assay: as above
# [14] = tested on: Vero E6; assay: as above
# [15] = tested on: Caco-2; assay: as above
Structure (SMILES),drug sensitivity score [1],drug sensitivity score [2],drug sensitivity score [3],drug sensitivity score [4],drug sensitivity score [5],cell viability ([6]; 1 nM) [%],cell viability ([6]; 10 nM) [%],cell viability ([6]; 100 nM) [%],cell viability ([6]; 1000 nM) [%],cell viability ([6]; 10000 nM) [%],cell viability ([7]; 1 nM) [%],cell viability ([7]; 10 nM) [%],cell viability ([7]; 100 nM) [%],cell viability ([7]; 1000 nM) [%],cell viability ([7]; 10000 nM) [%],cell viability ([8]; 1 nM) [%],cell viability ([8]; 10 nM) [%],cell viability ([8]; 100 nM) [%],cell viability ([8]; 1000 nM) [%],cell viability ([8]; 10000 nM) [%],cell viability ([9]; 1 nM) [%],cell viability ([9]; 10 nM) [%],cell viability ([9]; 100 nM) [%],cell viability ([9]; 1000 nM) [%],cell viability ([9]; 10000 nM) [%],cell viability ([10]; 1 nM) [%],cell viability ([10]; 10 nM) [%],cell viability ([10]; 100 nM) [%],cell viability ([10]; 1000 nM) [%],cell viability ([10]; 10000 nM) [%],relative viability EC50 [11] [µM],relative viability EC50 [12] [µM],relative viability EC50 [13] [µM],relative viability EC50 [14] [µM],relative viability EC50 [15] [µM]
Cc1cc(O)cc(C)c1Cl [chloroxylenol],0,0,0,0,0.3,104,108,94.7,105,95.5,102,106,97.3,99.8,95.4,90.6,92,105,104,94,101,101,96.9,99.1,104,99.8,101,93.2,92,89.3,> 10,> 10,> 10,> 10,> 10
C[C@H](Oc1ccc(S(C)(=O)=O)cc1C(=O)N1CCN(c2ncc(C(F)(F)F)cc2F)CC1)C(F)(F)F [bitopertin],0,0,0,0,0,97.1,99,95.8,97.8,106,98.9,100,101,95.3,101,94.7,95.1,96.2,104,98.4,103,95.6,96.6,100,97.5,100,98.6,92.5,94.2,91.1,> 10,> 10,> 10,> 10,> 10
COC(=O)C[C@H]1CC(c2ccc(O)cc2)=NO1 [ISO-1],0,0,0,0,0,100,109,104,99.5,109,95.2,98.9,96.1,106,96.8,104,102,102,103,94.6,106,99.7,97.1,101,98.5,102,103,96.9,93.5,109,> 10,> 10,> 10,> 10,> 10
CC(C)CN(C[C@@H](O)[C@H](Cc1ccccc1)NC(=O)O[C@H]1CCOC1)S(=O)(=O)c1ccc(N)cc1 [amprenavir],0,0,0,0,0.6,101,102,99.3,97.7,107,106,97.8,96.5,98.6,101,114,88.9,92.7,96.5,87.7,110,102,93.9,101,93.4,103,100,106,87.2,87.7,> 10,> 10,> 10,> 10,> 10
c1ccc(C2CN3CCSC3=N2)cc1 (stereo not given) [tetramisole],0,0,0,0,0.85 ± 1.2,98.7 ± 5,97.85 ± 0.92,99.7 ± 1.3,110 ± 12,94.7 ± 1.6,99.8 ± 1.8,98.2 ± 2.3,98.3 ± 1.8,97.9 ± 1.1,100 ± 6.9,101.9 ± 0.14,95.6 ± 0.57,96.2 ± 3.5,93.1 ± 5.7,100 ± 4.2,93.8 ± 2.8,98.5 ± 1.6,96.2 ± 3.3,96.8 ± 0.57,101 ± 1.1,95 ± 7.1,102 ± 11,92.65 ± 0.78,91.9 ± 8.6,96.5 ± 1.7,> 10,> 10,> 10,> 10,> 10
COC(=O)C1=C(C)NC(C)=C(C(=O)OCCCN2CCC(c3ccccc3)(c3ccccc3)CC2)[C@@H]1c1cccc([N+](=O)[O-])c1 [dexniguldipine],4.95 ± 1.8,5.3 ± 2.3,4.5 ± 0.14,4.2,4.65 ± 0.49,103.7 ± 0.42,94 ± 2.3,104.1 ± 0.71,99.2 ± 7.6,15.8 ± 14,102 ± 2.6,102 ± 2.5,100.8 ± 0.21,94.3 ± 7.8,20.8 ± 17,102 ± 14,101 ± 3.4,94.7 ± 3.8,102 ± 3,16.8 ± 2,94 ± 1.9,99.7 ± 2.5,95 ± 3.6,94.35 ± 0.92,39.5 ± 2.3,99.8 ± 0.28,100 ± 0.71,97.7 ± 7.6,91.4 ± 0.42,40.8 ± 7.7,3.03,2.61,3.26,2.39,2.01
Clc1ccc(Nc2nnc(Cc3ccncc3)c3ccccc23)cc1 [vatalanib],0,0,0.3,0.4,0.7,95.9,89.8,97.5,102,90.3,103,100,100,101,92.7,101,92.4,107,102,83,95.9,93.8,89,88.8,90,98.6,99.3,102,94.7,84.5,> 10,> 10,> 10,> 10,> 10
O=C(O)C[C@H](O)C(=O)O [malic-acid],0,0,0,0,0,102,108,92.3,95.2,95.2,105,101,103,97.6,101,101,95,94.6,95.2,95,98.1,107,96.5,100,95.5,93,91.8,99,91,99.8,> 10,> 10,> 10,> 10,> 10
c1cc(-c2sc(-c3ccncc3)c(-c3ccncc3)c2-c2ccncc2)ccn1 [GANT-58],0,0,0,0,0.2,98.3,94.8,95.3,88.5,106,102,99.2,99.8,97.8,99.2,90.9,102,97.8,118,103,93,106,91.7,96.4,111,105,99,94.6,92.6,86.6,> 10,> 10,> 10,> 10,> 10
CN1C(=O)C[C@@H](C(=O)N[C@@H](Cc2c[nH]cn2)C(=O)N2CCC[C@H]2C(N)=O)NC1=O [taltirelin],0.5,0,0,0,0,96.3,94.7,101,97.8,84.9,105,96.2,99.5,98.1,101,106,99.6,99,104,108,99,96.8,104,97.4,98.3,101,100,97.2,97.6,95.9,> 10,> 10,> 10,> 10,> 10
CCOc1cc(N)c(Cl)cc1C(=O)NCC1CN(Cc2ccc(F)cc2)CCO1 (stereo not given) [mosapride],0,0,0,0,0,95.7,87.4,105,97.6,106,101,95.9,99,95.9,103,95.4,99.7,98.8,98.3,101,99.1,102,101,94.5,98.3,89.6,93.4,99.9,96.1,100,> 10,> 10,> 10,> 10,> 10
NC1=NC(=O)N([C@H]2C[C@H](O)[C@@H](CO)O2)CN1 [KP-1212],0,0,0,0,0,93.3,90.5,94.3,98.9,98.8,92.6,102,95.5,99.7,103,99.1,95,100,98.3,93.9,99.8,98.7,97.9,92.1,105,89.9,104,89,103,99.8,> 10,> 10,> 10,> 10,> 10
C[C@]12CCC(=O)C[C@@H]1CC[C@@H]1[C@@H]2CC[C@]2(C)[C@@H](O)CC[C@@H]12 [Dihydrotestosterone],0,0,0,0,0,97.6,99.9,101,98.9,94.3,98.2,104,94.8,103,98.9,112,95.8,99.3,106,95.3,106,99.3,101,100,104,108,93.1,103,102,97.5,> 10,> 10,> 10,> 10,> 10
NC(=O)N/N=C/c1ccc(Oc2ccc(F)cc2)cc1,0,0,0.1,0.1,0,99.9,101,80.1,92.8,109,95.9,94.5,98.9,97.6,99.4,95.8,106,92.4,89.7,96,105,101,104,100,86.6,99.6,98.4,104,96.8,97.9,> 10,> 10,> 10,> 10,> 10
